For this assay, the system named is wild‐type BCG cells. The assay is classed as cell-based, M. bovis BCG. Conditions: protein A0A0H3MG19, BCG_2669 (Rv2642), Arsenical resistance operon repressor; down-regulated; 3 d.

This is an account of results in paper PMC12042115 (mLife, 2025).

Each structure is given as a SMILES string.

Regarding `O=C(Oc1ccc(Cl)cc1)c1ccc(N2CCOCC2)c([N+](=O)[O-])c1` [GDI‐5755], the “Mean_Ratio (GDI5755_3d vs DMSO_3d)” value is 0.7.
